We go through eleven molecules from ChEMBL document CHEMBL1201862, “PubChem BioAssay data set” (2004).

Structures are written as SMILES.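 The compound was tested at five concentrations on cells cultured in 96-well plates, with a 48-hour exposure period. Here, GI50 denotes the concentration required for 50% inhibition of growth.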 Calls of active or inactive are those of the source. Rule as the data show it: active = GI50 up to about 1.1 µM and inactive = higher.

Some test systems named below: OVCAR-5; CAKI-1; IGROV-1; HCT-116; RXF 393; SR; NCI-H460; CCRF-CEM; HOP-62; NCI-H522; OVCAR-8; NCI-H23; EKVX; HCC 2998; RPMI-8226; A549; SK-MEL-2; SK-MEL-28; MCF7; HOP-92.
Test in all cases: inhibition of tumour cell growth, NCI panel, 48 h

Take `COc1ccc(/C(C=O)=C(\Cl)c2ccc(OC)c(OC)c2)cc1`: the GI50 in the test with OVCAR-5 is > 100 µM (inactive); in the test on CAKI-1, > 100 µM (inactive); with IGROV-1 it was > 100 µM (inactive); in the test with HCT-116, > 100 µM (inactive); with RXF 393 it was > 100 µM (inactive); with SR, 3.89 µM (inactive). The GI50 is > 100 µM (inactive) in the test on NCI-H460; 52.4 µM (inactive) with CCRF-CEM; 36.8 µM (inactive) in the test with HOP-62; 5.83 µM (inactive) in the test with NCI-H522; 75.5 µM (inactive) in the test on OVCAR-8; > 100 µM (inactive) in the test on NCI-H23. Moreover, the GI50 with EKVX, in the test with HCC 2998, with RPMI-8226, in the test on A549 and in the test with SK-MEL-2 was > 100 µM (inactive) throughout.
`COc1ccc(C2C3CCCC(C3=O)C(c3ccc(OC)cc3)N2N=O)cc1` (stereo not given): the GI50 was > 55.6 µM (inactive) with OVCAR-5; 29.9 µM (inactive) in the test on CAKI-1; 35.5 µM (inactive) with IGROV-1; 29 µM (inactive) in the test on HCT-116; 40.3 µM (inactive) in the test on SK-MEL-28; 18.9 µM (inactive) with RXF 393. The GI50 in the test with NCI-H460 is 20.6 µM (inactive); in the test with CCRF-CEM, 26.1 µM (inactive); with HOP-62, 38.5 µM (inactive); in the test on NCI-H522, 17.1 µM (inactive); in the test with OVCAR-8, 37 µM (inactive); in the test on NCI-H23, 19.5 µM (inactive). The GI50 with EKVX is 56.9 µM (inactive); in the test with HCC 2998 it was 28.9 µM (inactive); in the test with RPMI-8226 it was 20.7 µM (inactive); in the test on MCF7, 18.8 µM (inactive); in the test on HOP-92, 41.7 µM (inactive); in the test on A549, 34.7 µM (inactive). In addition, the GI50 with SK-MEL-2 was 20.5 µM (inactive).
As for `COc1ccc2[nH]cc(/C=C(/C)c3ccncc3)c2c1`, the GI50 was 33.1 µM (inactive) with OVCAR-5; 9.73 µM (inactive) in the test on CAKI-1; 13.2 µM (inactive) in the test with IGROV-1; 4.15 µM (inactive) in the test with HCT-116; 4.94 µM (inactive) with SK-MEL-28; 3.57 µM (inactive) with NCI-H460. The GI50 in the test on CCRF-CEM was 3.13 µM (inactive); in the test on HOP-62, 7.64 µM (inactive); in the test on NCI-H522 it was 2.63 µM (inactive); with OVCAR-8, 16 µM (inactive); in the test on NCI-H23, 2.59 µM (inactive); in the test with EKVX, 15.6 µM (inactive). Besides, the GI50 in the test on HCC 2998 was 8.24 µM (inactive); with RPMI-8226, 5.89 µM (inactive); in the test with MCF7 it was 3.47 µM (inactive); in the test on HOP-92 it was 6.47 µM (inactive); with A549, 8.36 µM (inactive); with SK-MEL-2, 5.38 µM (inactive).
For `COC1/C=C\C=C(/C)C(=O)NC2=CC(=O)C=C(C2=O)C(OC)C(C)CC(OC)C(OC)C(C)/C=C(/C)C1OC(N)=O` (stereo not given), the GI50 is 15.3 µM (inactive) with OVCAR-5; 12.2 µM (inactive) in the test on CAKI-1; 12.7 µM (inactive) in the test on IGROV-1; 1.34 µM (inactive) in the test with HCT-116; 2.59 µM (inactive) in the test on SK-MEL-28; 11.5 µM (inactive) in the test on NCI-H460. Besides, the GI50 in the test on CCRF-CEM was 0.278 µM (active); in the test on HOP-62 it was 2.92 µM (inactive); in the test with NCI-H522, 0.231 µM (active); with OVCAR-8 it was 1.65 µM (inactive); in the test with NCI-H23 it was 1.7 µM (inactive); in the test on EKVX, 1.97 µM (inactive). The GI50 is 2.66 µM (inactive) with HCC 2998; 0.807 µM (active) with RPMI-8226; 1.28 µM (inactive) in the test on MCF7; 2.04 µM (inactive) in the test with HOP-92; 16.7 µM (inactive) in the test with A549; 2.31 µM (inactive) in the test with SK-MEL-2.
Regarding `O=C1/C(=C/c2ccc(Cl)cc2)N=C(c2ccccc2)N1/N=C/c1ccccc1O`, the GI50 with OVCAR-5 was 12.7 µM (inactive); in the test with CAKI-1, 7.6 µM (inactive); with IGROV-1, 8.26 µM (inactive); in the test with HCT-116, 2.44 µM (inactive); in the test on SK-MEL-28, 15.1 µM (inactive); in the test with RXF 393 it was 11.4 µM (inactive). For the same molecule, the GI50 in the test on NCI-H460 was 18 µM (inactive); in the test with CCRF-CEM it was 2.11 µM (inactive); in the test with HOP-62, 1.87 µM (inactive); with NCI-H522 it was 13.4 µM (inactive); in the test with OVCAR-8 it was 5.51 µM (inactive); in the test with NCI-H23, > 100 µM (inactive). For the same molecule, the GI50 in the test on EKVX was 4.66 µM (inactive); in the test with RPMI-8226, 6.89 µM (inactive); in the test with MCF7, 13.9 µM (inactive); in the test with HOP-92, 11.5 µM (inactive); in the test on A549, 19.2 µM (inactive); in the test on SK-MEL-2, 17.1 µM (inactive).
With `CSCC[C@@H]1C(=O)N(C)[C@H](C(C)(C)C)N1C(=O)c1ccccc1`, the GI50 in the test with OVCAR-5, with IGROV-1, in the test with HCT-116, in the test with SK-MEL-28, in the test with RXF 393 and with NCI-H460 was > 100 µM (inactive) each time. The GI50 in the test with CCRF-CEM, in the test on HOP-62, in the test on NCI-H522, in the test with OVCAR-8, in the test with NCI-H23 and with EKVX was > 100 µM (inactive) each time. Moreover, the GI50 with HCC 2998, in the test with RPMI-8226, with MCF7, in the test on HOP-92, with A549 and in the test on SK-MEL-2 was > 100 µM (inactive) throughout.
Turning to `CCCSCC(P(=O)(O)O)P(=O)(O)O.NC1CCCCC1`, the GI50 in the test on OVCAR-5, with CAKI-1, in the test with IGROV-1, in the test with HCT-116, with SK-MEL-28 and in the test on RXF 393 was > 100 µM (inactive) throughout. In addition, the GI50 in the test on NCI-H460, in the test with CCRF-CEM, in the test with HOP-62, in the test with NCI-H522, in the test on OVCAR-8 and in the test with NCI-H23 was > 100 µM (inactive) each time. The GI50 with EKVX, with HCC 2998, with RPMI-8226, in the test with MCF7, in the test on HOP-92 and with A549 was > 100 µM (inactive) throughout. The GI50 with SK-MEL-2 is > 100 µM (inactive).
`CCCCC#CS(=O)(=O)C(F)(F)F`: the GI50 in the test with OVCAR-5 is > 100 µM (inactive); in the test with CAKI-1, 0.605 µM (active); with IGROV-1, > 100 µM (inactive); in the test on HCT-116, 36 µM (inactive); in the test on SK-MEL-28, > 60 µM (inactive); in the test on RXF 393 it was 20.4 µM (inactive). In addition, the GI50 was > 92.5 µM (inactive) in the test on NCI-H460; 48.6 µM (inactive) in the test with CCRF-CEM; > 61.5 µM (inactive) in the test on HOP-62; 36.1 µM (inactive) in the test on NCI-H522; 97.1 µM (inactive) in the test with OVCAR-8; 58.6 µM (inactive) in the test on NCI-H23. Moreover, the GI50 with EKVX was > 100 µM (inactive); in the test with HCC 2998, > 31.6 µM (inactive); in the test with RPMI-8226 it was 47.4 µM (inactive); in the test with MCF7, 52.6 µM (inactive); in the test on HOP-92 it was 34.1 µM (inactive); in the test with A549 it was > 78.9 µM (inactive). The GI50 in the test with SK-MEL-2 was > 36.8 µM (inactive).
`COC(=O)C1=C(C)N2CCCOC2(C)C(C(=O)OC)C1c1cccc(Cl)c1` (stereo not given): the GI50 was 17.5 µM (inactive) in the test on CAKI-1; 25.7 µM (inactive) in the test on IGROV-1; 25 µM (inactive) in the test with HCT-116; 21.7 µM (inactive) in the test on SK-MEL-28; 33.1 µM (inactive) in the test on RXF 393; > 10 µM (inactive) in the test with SR. For the same molecule, the GI50 in the test with NCI-H460 is 20.5 µM (inactive); in the test with CCRF-CEM it was 27.7 µM (inactive); in the test with HOP-62, 20.7 µM (inactive); with OVCAR-8 it was 24.9 µM (inactive); with NCI-H23, 31.8 µM (inactive); in the test with EKVX, 14 µM (inactive). Moreover, the GI50 in the test on HCC 2998 was 35.3 µM (inactive); with RPMI-8226, 14.3 µM (inactive); in the test on HOP-92 it was 19.1 µM (inactive); with A549, > 100 µM (inactive); in the test on SK-MEL-2, 18.1 µM (inactive).
Take `O=S(O)c1cc(Cl)c(O)c(Cl)c1`: the GI50 in the test with OVCAR-5, in the test on HCT-116, with SK-MEL-28, in the test on RXF 393, with SR and in the test with NCI-H460 was > 100 µM (inactive) in each case. For the same molecule, the GI50 with CCRF-CEM, in the test with HOP-62, in the test with NCI-H522, with NCI-H23, with EKVX and in the test with HCC 2998 was > 100 µM (inactive) in each case. In the test on SK-MEL-2, the GI50 is > 100 µM (inactive).
In the case of `COC(=O)c1nc(-c2ccc3c(n2)C(=O)C(=N)C(OC)=C3O)c(N)c(-c2ccc(OC)c(OC)c2O)c1C`, the GI50 was 2.14 µM (inactive) with OVCAR-5; 0.628 µM (active) in the test on CAKI-1; 1.7 µM (inactive) in the test on IGROV-1; 0.738 µM (active) with HCT-116; 1.33 µM (inactive) with SK-MEL-28; 1.58 µM (inactive) in the test with RXF 393. Further, the GI50 with NCI-H460 is < 0.01 µM (active); in the test on CCRF-CEM, 2.56 µM (inactive); with HOP-62 it was 0.194 µM (active); with NCI-H522 it was 1.06 µM (active); in the test with OVCAR-8, 1.08 µM (active); in the test on NCI-H23, 0.217 µM (active). For the same molecule, the GI50 was 2.57 µM (inactive) with EKVX; 0.128 µM (active) in the test on HCC 2998; 1.21 µM (inactive) in the test on RPMI-8226; 0.153 µM (active) in the test with MCF7; 2.16 µM (inactive) in the test with HOP-92; 0.189 µM (active) in the test with A549. Also, the GI50 with SK-MEL-2 was 1.47 µM (inactive).
